# Earlier results as cited in article PMC7466129, “Solid Lipid Nanoparticles for Duodenum Targeted Oral Delivery of Tilmicosin” (Pharmaceutics, 2020).
# How the values were obtained:
# [1] = parameters: method as in PMID 31614726; settings: 100 °C, 30 min
# Mycoplasma = test system: Mycoplasma; parameters: method as in PMID 29149886
# [2] = test system: Actinobacillus pleuropneumoniae; parameters: method as in PMID 29139136
smiles,measurement,setting,value
"CC[C@H]1OC(=O)C[C@@H](O)[C@H](C)[C@@H](O[C@@H]2O[C@H](C)[C@@H](O)[C@H](N(C)C)[C@H]2O)[C@@H](CCN2C[C@H](C)C[C@H](C)C2)C[C@@H](C)C(=O)/C=C/C(C)=C/[C@@H]1CO[C@@H]1O[C@H](C)[C@@H](O)[C@@H](OC)[C@H]1OC [tilmicosin, Tilmicosin]",saturation solubility in carnauba wax,[1],50%
same,saturation solubility in hydrogenated castor oil,[1],25%
same,minimum inhibitory concentration (MIC),Mycoplasma,≤ 0.25 µg/mL
same,minimum inhibitory concentration (MIC),[2],0.5 µg/mL
